Earlier results on 1 compound are cited in patent US20230201290A1, “TGF-BETA INHIBITION, AGENTS AND COMPOSITION THEREFOR” (GMP BIOTECHNOLOGY LIMITED, priority 2020, published 2023).

Bounds are passed on as bounds.

The subject of this data set is Vero E6 cells. As to conditions: remdesivir, literature; cited from earlier work.

The CC50 is the concentration giving 50% cytotoxicity. Consider `CCC(CC)COC(=O)[C@H](C)N[P@](=O)(OC[C@H]1O[C@@](C#N)(c2ccc3c(N)ncnn23)[C@H](O)[C@@H]1O)Oc1ccccc1` [Remdesivir], for which the 50% cytotoxic concentration (CC50) is more than 200 µM.
